Source: patent US20250041382A1, “ANTIVIRAL COMPOSITION COMPRISING OCTOMININ” (priority 2023, published 2025)
pEC50: −log10 of the molar value. Values joined by “and” are separate entries in the source; they are usually repeats but may differ in a detail not shown here. Identical values can stand only once. Peptide text beside a SMILES is read from it.

Key:
in vitro [1] = format: cell-based
VHSV (F1Wa05 strain) = test: Cytopathic effect (CPE) reduction assay, VHSV in FHM cells
Method: (§1) Specifically, three major fish pathogenic viruses VHSV (F1Wa05 strain), IHNV (RtPy91 strain), and IPNV (VR299 strain) were used to study the antiviral activity of Octominin. Octominin at various concentrations reacted with an equal amount of virus (infectious titer: 200 TCID50/mL) at 15° C. for 1 hour. Thereafter, the reactant was overlaid onto quadruplicate FHM cells in a 96-well plate (1×10^5 cells/mL) and incubated for 96 hours.
(§2) CPE was scored by optical microscopy using a DIAPHOT 300 inverted microscope (Nikon Cooperation, Tokyo, Japan) (score 0, 0% CPE; score 1, 10 to 20% CPE; score 2, 30 to 40% CPE; score 3, 50 to 60% CPE; score 4, 70 to 80% CPE; and score 5, 90 to 100%). The results were expressed as a 50% effective concentration (EC50) and calculated using Microsoft Excel software. Ribavirin, a known broad-spectrum antiviral agent, was used as a positive control group. The antiviral activity of Octominin was evaluated by calculation using Equation SI (selective index)=CC50/EC50.

IHNV (RtPy91 strain) = test: microbe, parasite or virus in culture
Method: as §1, §2

IPNV (VR299 strain) = test: microbe, parasite or virus in culture
Method: as §1, §2

in vitro [2] = format: cell-based; conditions: fathead minnow
[3] = fathead minnow (Pimephales promelas), 96 h

Row | Structure (SMILES) | CC50 (in vitro [1]; Chinook salmon (Oncorhynchus tshawytscha)) | SI (selective index)=CC50/EC50 (VHSV (F1Wa05 strain); [3]) | SI (selective index)=CC50/EC50 (IHNV (RtPy91 strain); [3]) | SI (selective index)=CC50/EC50 (IPNV (VR299 strain); Chinook salmon (Oncorhynchus tshawytscha), 96 h) | CC50 (in vitro [2]) [nM] | CC50 (in vitro [1]; Chinook salmon) [nM] | pEC50 (VHSV (F1Wa05 strain); Viral hemorrhagic septicemia virus, 96 h) | selectivity ratio at 96 h (VHSV (F1Wa05 strain); fathead minnow, FHM cells infected with VHSV (F1Wa05 strain)) | pEC50 (IHNV (RtPy91 strain); Infectious hematopoietic necrosis virus, 96 h) | selectivity ratio at 96 h (IHNV (RtPy91 strain); fathead minnow) | selectivity ratio at 96 h (IPNV (VR299 strain); Chinook salmon) | pEC50 (IPNV (VR299 strain); Infectious pancreatic necrosis virus, CHSE-214)
1 | CC[C@H](C)[C@H](NC(=O)[C@H](C)NC(=O)[C@H](CCCCN)NC(=O)CNC(=O)[C@H](C)NC(=O)[C@H](Cc1c[nH]cn1)NC(=O)[C@@H](NC(=O)[C@H](C)NC(=O)CNC(=O)[C@H](CCCNC(=N)N)NC(=O)[C@@H](NC(=O)[C@H](CC(C)C)NC(=O)[C@H](Cc1c[nH]c2ccccc12)NC(=O)CN)[C@@H](C)CC)[C@@H](C)CC)C(=O)N[C@@H](Cc1c[nH]cn1)C(=O)NCC(=O)N[C@@H](CC(C)C)C(=O)N[C@H](C(=O)N[C@@H](Cc1c[nH]cn1)C(=O)N[C@@H](CCCNC(=N)N)C(=O)N[C@@H](CCCNC(=N)N)C(=O)N[C@@H](CCCNC(=N)N)C(=O)N[C@@H](Cc1c[nH]cn1)C(=O)O)[C@@H](C)CC [Octominin] (H-GWLIRGAIHAGKAIHGLIHRRRH-OH) | 1870 µg/mL and 990 µM | 2.9 | 4.9 | 2.0 | – | – | – | – | – | – | – | –
2 | NC(=O)c1ncn([C@@H]2O[C@H](CO)[C@@H](O)[C@H]2O)n1 [Ribavirin] | – | – | – | – | 962000 | 121000 | 6.57 | 3560 | 6.26 | 1750 | 162 | 6.12
